From US7977372B2, “Ortho aminoamides for the treatment of cancer” (Hoffmann-La Roche Inc., priority 2009, dated 2011) come the findings set out here.

Assay [1] concerns SMMC-7721 liver cancer cells. The assay is described as follows: Growth inhibition of cancer cell lines (MTS / WST assay), SMMC-7721. It is filed as cell-based. Conditions: Homo sapiens, SMMC-7721, 72 h; for IC90: read-out: SMMC GI90. The method, then:
(§1) The novel compounds of the present invention were tested for their ability to inhibit growth of various cancer cell lines using in vitro growth inhibition assays described below.
(§2) Cells were seeded in 96-well culture plates (200 microliters/well at different seeding concentrations depending on cell type) and incubated overnight at 37 degrees Celsius in 5% CO2. After adding compound dilutions to the cells (DMSO concentration kept below 0.5%), the cells were incubated at 37 degrees Celsius in 5% CO2 for 72 hours. The effects on proliferation were determined by addition of MTS reagent (Promega) according to the manufacturer's instruction, followed by incubation for 2 hours at 37 degrees Celsius in 5% CO2, and finally recording the absorbance at 490 nm using an ELISA plate reader.
(§3) Similar to MTS assay except that the developer is the CCK-8 reagent (Dojindo) and the plate reader is set to 450 nm absorbance.
(§4) GI50 and GI90 values against SGC-7901 gastric cancer cells and SMMC-7721 liver cancer cells for specific representative compounds can be found in Table 19.

Assay [2] concerns SGC-7901 gastric cancer cells. The assay is described as follows: Growth inhibition of cancer cell lines (MTS / WST assay), SGC-7901. In kind it is cell-based. To be noted: Homo sapiens, SGC-7901, 72 h; for IC90: read-out: SGC GI90. As to the method: as §1, §2, §3, §4
For assay [3], the system named is histone deacetylase (HeLa nuclear extract). The assay is described as follows: HeLa extract HDAC fluorometric assay. It is filed as biochemical. To be noted: compound at 30 micromolar; relative to SNDX-275. The method, then:
Novel compounds were tested for their ability to inhibit histone deacetylase using an in vitro deacetylation assay. The enzyme source for this assay was HeLa nuclear extract. The substrate consisted of a commercial product containing an acetylated lysine side chain (both HeLa extract and substrate are available commercially from BIOMOL Research Laboratories, Inc., Plymouth Meeting, Pa.). After deacetylation of the substrate by incubation with HeLa nuclear extract, subsequent exposure to a developing reagent produces a fluorophore that is directly proportional to the level of deacetylation. Using the substrate concentration at the Km for the HeLa nuclear extract, the deacetylation assay was performed in the presence of novel compounds at 30 micromolar and the percent enzyme inhibition relative to a known reference HDAC inhibitor (SNDX-275) was determined. […] Inhibitory activity for specific representative compounds can be found in Table 19.

The term GI50 denotes the concentration that inhibits growth by half. A lower GI50 goes with more potent growth inhibition.

For `CCN1CC(C(=O)Nc2ccc(Cl)cc2)C(c2ccc(/C=C/C(=O)Nc3ccccc3N)cc2)C1` (centres unmarked) [Example 21-6], the GI50 in assay [1] is 800 nM; in assay [2], 400 nM. For the same compound, the IC90 in assay [1] is 2520 nM; in assay [2], 1210 nM. In assay [3], the “HD RP30 (relative inhibitory potency compared with SNDX-275)” value is 1.48.
For `CN1CC(C(=O)Nc2ccc(F)cc2)C(c2ccc(/C=C/C(=O)Nc3ccccc3N)cc2)C1` (racemic) [Example 5, rac-(trans-3,4)-4-{4-[2-(2-Amino-phenylcarbamoyl)-vinyl]-phenyl}-1-methyl-pyrrolidine-3-carboxylic acid (4-fluoro-phenyl)-amide], the GI50 in assay [1] is 650 nM; in assay [2], 390 nM. Further, the values for the IC90 in assay [1] and in assay [2] were 1950 nM and 1700 nM, respectively. In assay [3], the “HD RP30 (relative inhibitory potency compared with SNDX-275)” value was 1.61.
As for `Nc1ccccc1NC(=O)/C=C/c1ccc(C2CN(CCF)CC2C(=O)Nc2ccc(Cl)cc2)cc1` (racemic) [Example 21, rac-(trans-3,4)-4-{4-[2-(2-Amino-phenylcarbamoyl)-vinyl]-phenyl}-1-(2-fluoro-ethyl)-pyrrolidine-3-carboxylic acid (4-chloro-phenyl)-amide], the figures for the GI50 in assay [1] and in assay [2] were 910 nM and 420 nM, respectively. Also, the IC90 in assay [1] worked out at 2630 nM; in assay [2] it was 1380 nM. Besides, the “HD RP30 (relative inhibitory potency compared with SNDX-275)” value in assay [3] is reported as 1.09.
As for `CC(C)(C)N1CC(C(=O)Nc2ccc(F)cc2)C(c2ccc(/C=C/C(=O)Nc3ccccc3N)cc2)C1` (centres unmarked) [Example 36-5], in assay [1], halving of growth (GI50) required 650 nM and the IC90 worked out at 1840 nM. For the same compound, in assay [2], it took 310 nM to inhibit growth by half (GI50) and the IC90 is 1080 nM. The “HD RP30 (relative inhibitory potency compared with SNDX-275)” value in assay [3] is 1.70.
